Assay results taken from patent publication US20050004167A1, “Branched chain amino acid-dependent aminotransferase inhibitors and their use in the treatment of neurodegenerative diseases” (WARNER-LAMBERT COMPANY LLC, priority 2001, published 2005).
Values joined by “and” are separate entries in the source; they are usually repeats but may differ in a detail not shown here. Equal values may be shown once.

Legend:
[1] = biological target: T1, human Branched Chain Amino Acid Aminotransferase cytosolic form (hBCATc) (Homo sapiens, UniProt P54687); experiment: In vitro coupled enzyme assay (glutamate dehydrogenase, NADH formation), human BCATc; type: biochemical; settings: recombinant human BCATc, 37° C., 25 mM phosphate buffer pH 7.8; several values in a cell = repeat determinations; read-out: RhBCATc
T1 construct: made in house; host or cells: E. coli BL21(DE3)
T1 sequence (P54687 1-386): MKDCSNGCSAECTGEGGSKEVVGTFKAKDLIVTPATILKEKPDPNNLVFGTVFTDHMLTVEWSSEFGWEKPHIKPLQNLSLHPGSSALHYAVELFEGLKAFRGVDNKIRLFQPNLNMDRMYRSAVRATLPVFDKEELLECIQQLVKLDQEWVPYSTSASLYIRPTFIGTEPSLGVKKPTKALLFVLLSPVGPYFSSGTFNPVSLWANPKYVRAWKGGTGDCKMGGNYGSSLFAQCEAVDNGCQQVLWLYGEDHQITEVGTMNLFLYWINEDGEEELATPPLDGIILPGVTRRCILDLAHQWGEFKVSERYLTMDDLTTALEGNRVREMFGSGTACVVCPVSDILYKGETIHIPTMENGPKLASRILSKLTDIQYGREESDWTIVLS
Protocol: In vitro enzyme assay—human Branched Chain Amino Acid Aminotransferase cytosolic form (hBCATc) and mitochondrial form (hBCATm) as well as rat BCAT cytosolic form were assayed at 37° C. in 25 mM phosphate buffer pH 7.8. In addition, 2 mM DTT and 12.5 mM […] were added to the assay mixture. A coupling enzyme assay was used to monitor the production of glutamate. The formation of NADH from NAD+ at […] was followed on a 96-well plate Molecular Devices plate reader.
The following components were used in this coupled assay: 4 mM ADP, 1 mM NAD+, 750 μM L-Leucine, 500 μM α-ketoglutarate, 10 μM pyridoxal phosphate, 1 unit glutamate dehydrogenase, and 1.25 μg of the appropriate BCAT enzyme. Inhibitions by compounds were assayed by adding various concentrations to this coupled assay procedure as a DMSO stock up to a 5% v/v DMSO/buffer ratio.
Enzyme Preparation—humanBCATc and ratBCATc were expressed in BL21(DE3) cells. A growing culture of cells was induced with 1 mM IPTG at room temperature overnight. These cells were harvested by centrifugation at 10,000 g for 20 minutes. The supernatant was discarded, and the cells were stored at −80° C. until needed. The protein was purified by the following method. The cell paste was resuspended in extraction buffer (0.1 M phosphate, pH 8.0, with 0.01 M Tris-HCL and 5 mM TCEP and then lysed on a French Press at 1000 psi. The lysate was centrifuged at 10,000 g for 15 minutes, and the pellet was discarded. The supernatant was loaded onto a Hitrap Chelating column previously charged with 0.1 M NiSO4 and washed with 3 to 4 column volumes of extraction buffer. The column was then washed with 0.01 Tris, pH 7.5, 10% glycerol, 150 mM NaCl, 5 mM TCEP for two column volumes. The column was then further washed with two column volumes of 0.1 M phosphate, pH 6.0, 0.01 M Tris, 10% glycerol and 750 mM NaCl. Finally, the column was washed with two column volumes of the same buffer plus 50 mM imidazole. The BCAT enzyme was then eluted with the same buffer but with 350 mM imidazole. The eluant was then dialyzed overnight against 10 mM phosphate buffer pH 8.0, 10% glycerol, and 5 mM TCEP. The dialyzed protein was then loaded onto a Q-sepharose column and eluted using a salt gradient. Active fractions were collected and further purified on a Superose-12 column to yield pure BCAT protein.

SMILES	melting point	IC50 [1]
CN(C)c1ccc2[nH]c(C(=O)NNS(=O)(=O)c3ccccc3)cc2c1.Cl	251.6 to 252.7 °C	
CN(C)c1ccccc1S(=O)(=O)NNC(=O)c1ccc2oc3ccccc3c2c1.Cl	103.2 to 103.9 °C	
CN(C)c1ccc2oc(C(=O)NNS(=O)(=O)c3ccccc3)cc2c1.Cl	218.3 to 218.9 °C	
CN(C)c1ccc(S(=O)(=O)NNC(=O)c2ccc3oc4ccccc4c3c2)cc1.Cl	187.6 to 188.8 °C	
O=C(NNS(=O)(=O)c1ccccc1)c1ccc2c(c1)OCO2 (hydrate or solvate) [Example 10, Benzo[1,3]dioxole-5-carboxylic acid 2-(phenylsulfonyl)hydrazide]	156 to 158 °C	
O=C(NNS(=O)(=O)c1ccccc1)c1cccc2oc3ccccc3c12 [Example 12, 1-Dibenzofurancarboxylic acid 2-(phenylsulfonyl)hydrazide]		90.5 µM
O=C(NNS(=O)(=O)c1ccccc1)c1cccc2cccnc12 [Example 21, Quinoline-8-carboxylic acid 2-(phenylsulfonyl)hydrazide]		> 100 µM
COc1cccc2cc(C(=O)NNS(=O)(=O)c3ccccc3C(F)(F)F)oc12 [Example 54, 2-Benzofurancarboxylic acid, 7-methoxy-, 2-[[2-(trifluoromethyl)phenyl]-sulfonyl]hydrazide]		3.76 µM
COc1cccc2cc(C(=O)NNS(=O)(=O)c3cccc(C)c3)oc12 [Example 55, 2-Benzofurancarboxylic acid, 7-methoxy-, 2-[(3-methylphenyl)sulfonyl]hydrazide]		3.53 µM and 3.3 µM
COc1c(C(=O)NNS(=O)(=O)c2ccccc2)oc2ccc(Cl)cc12 [Example 78, 2-Benzofurancarboxylic acid, 5-chloro-3-methoxy, 2-(phenylsulfonyl)hydrazide]		3.7 µM
Cc1ccc(S(=O)(=O)NNC(=O)c2cnc3ccccc3c2)cc1 [Example 127, 3-Quinolinecarboxylic acid, 2-[(4-methylphenyl)sulfonyl]hydrazide]		16.8 µM
Cc1cccc(S(=O)(=O)NNC(=O)c2ccc3ncccc3c2)c1 [Example 128, 6-Quinolinecarboxylic acid, 2-[(3-methylphenyl)sulfonyl]hydrazide]		12 µM
Cc1cccc(S(=O)(=O)NNC(=O)c2cnc3ccccc3c2)c1 [Example 129, 3-Quinolinecarboxylic acid, 2-[(3-methylphenyl)sulfonyl]hydrazide]		13 µM
O=C(NNS(=O)(=O)c1cccc(Cl)c1)c1ccc2ncccc2c1 [Example 130, 6-Quinolinecarboxylic acid, 2-[(3-chlorophenyl)sulfonyl]hydrazide]		22 µM
O=C(NNS(=O)(=O)c1cccc(Cl)c1)c1cnc2ccccc2c1 [Example 131, 3-Quinolinecarboxylic acid, 2-[(3-chlorophenyl)sulfonyl]hydrazide]		61 µM
O=C(NNS(=O)(=O)c1cccc(F)c1)c1ccc2ncccc2c1 [Example 132, 6-Quinolinecarboxylic acid, 2-[(3-fluorophenyl)sulfonyl]hydrazide]		40 µM
O=C(NNS(=O)(=O)c1cccc(F)c1)c1cnc2ccccc2c1 [Example 133, 3-Quinolinecarboxylic acid, 2-[(3-fluorophenyl)sulfonyl]hydrazide]		> 100 µM
O=C(NNS(=O)(=O)c1cc(Cl)cc(Cl)c1)c1ccc2ncccc2c1 [Example 138, 6-Quinolinecarboxylic acid, 2-[(3,5-dichlorophenyl)sulfonyl]hydrazide]		> 100 µM
O=C(NNS(=O)(=O)c1cc(Cl)cc(Cl)c1)c1cnc2ccccc2c1 [Example 139, 3-Quinolinecarboxylic acid, 2-[(3,5-dichlorophenyl)sulfonyl]hydrazide]		41 µM
O=C(NNS(=O)(=O)c1ccccc1)c1nccc2ccccc12 [Example 152, Isoquinoline-1-carboxylic acid 2-(phenylsulfonyl)hydrazide]		> 100 µM
